Assay results from US11572341B2, “Biguanide compound and use thereof” (ImmunoMet Therapeutics Inc., priority 2014, dated 2023).
Where a name gives a salt, the structure may show the parent alone. Read-outs that look alike come from different tables or passages of the source.

What was measured:
AMPKa [pT172] = test: AMPKa activation [pT172] in MCF7 cell; type: cell-based
HCT116 cells = test: Inhibitory effect against cancer cell proliferation (MTT); type: cell-based, human; details: Homo sapiens, read-out: IC50 (uM) @ HCT116
Description: The formazane crystals thus formed were dissolved using dimethyl sulfoxide (DMSO) and absorbance of the solution was measured at 560 nm. After culturing for 48 hours, […] synthesized in Examples was indicated as cell viability (%) according to each treated concentration.

IC50 (HCT116 cells; HCT-116, HCT116, MTT, 48 hours) [µM] | Compound | AMPKa activation [pT172] (Unit/ml) @ MCF7 cell (AMPKa [pT172]; 50 uM) | AMPKa activation [pT172] (Unit/ml) @ MCF7 cell (AMPKa [pT172]; 5 uM) [Unit/ml] | AMPKa activation [pT172] (Unit/ml) @ MCF7 cell (AMPKa [pT172]; 10 uM) [Unit/ml] | IC50 (HCT116 cells; HCT-116, 48 h) [µM]
> 100 | CCCCCCN(CCCCCC)C(=N)NC(=N)N.Cl [Example 133, N1,N1-dihexyl Biguanide Hydrochloride] | 7.1 Unit/ml | – | – | –
32.8 | CN1CCN(C(=N)NC(=N)Nc2ccc(Cl)c(Cl)c2)CC1.Cl [Example 37, N1-(4-methyl)piperazin-N5-(3,4-dichloro)phenyl Biguanide Hydrochloride] | 15.0 Unit/ml | 5.8 | 7.5 | –
7.9 | Cl.N=C(NC(=N)N1CCCC1)Nc1ccc(SC(F)(F)F)cc1 [Example 79, N1-pyrrolidin-N5-(4-trifluoromethylthio)phenyl Biguanide Hydrochloride] | cell death | 7.8 | 11.7 | –
11.5 | CCOC1CCN(C(=N)NC(=N)Nc2cccc(C(F)(F)F)c2)CC1.Cl [Example 24, N1-(4-ethoxy)piperidin-N5-(3-trifluoromethyl)phenyl Biguanide Hydrochloride] | cell death | 5.2 | 4.7 | –
– | COc1ccc(CNC(=N)NC(=N)N)cc1 [Example 131, N1-(4-methoxy)benzyl Biguanide Hydrochloride] | 17.6 Unit/ml | – | – | > 100
> 100 | CC/N=C(\NCc1ccc2c(c1)OCO2)NC(=N)N.Cl [Example 100, N1-(benzo[d][1,3]dioxol-5-yl)methyl-N2-ethyl Biguanide Hydrochloride] | 8.0 Unit/ml | 7.1 | 9.0 | –
6.8 | CC1CCN(C(=N)NC(=N)Nc2ccc(OC(F)(F)F)cc2)CC1.Cl [Example 52, N1-(4-methyl)piperidin-N5-(4-trifluoromethoxy)phenyl Biguanide Hydrochloride] | cell death | 9.4 | 15.0 | –
> 100 | COc1ccc(NC(=N)NC(=N)N2CCCCC2)cc1.Cl [Example 73, N1-piperidin-N5-(4-methoxy)phenyl Biguanide Hydrochloride] | 9.1 Unit/ml | 3.9 | 4.5 | –
> 100 | CC1CCCN(C(=N)NC(=N)NC2CCCC2)C1.Cl (stereo not drawn) [Example 44, N1-(3-methyl)piperidin-N5-cyclopentyl Biguanide Hydrochloride] | 14.8 Unit/ml | 4.5 | 5.2 | –
> 100 | Cl.N=C(NCc1ccccc1Cl)NC(=N)N1CCCCC1 [Example 12, N1-piperidin-N5-(2-chloro)benzyl Biguanide Hydrochloride] | 3.1 Unit/ml | – | – | –
36.1 | CC1CC(C)CN(C(=N)NC(=N)Nc2ccc(F)cc2)C1.Cl (stereo not drawn) [Example 64, N1-(3,5-dimethyl)piperidin-N5=(4-fluoro)phenyl Biguanide Hydrochloride] | 31.4 Unit/ml | 2.2 | 4.4 | –
> 100 | Cl.N=C(N)NC(=N)Nc1ccc(C(F)(F)F)cc1 [Example 128, N1-(4-trifluoromethyl)phenyl Biguanide Hydrochloride] | 8.8 Unit/ml | 7.6 | 7.1 | –
> 100 | C/N=C(\NCCc1ccc2c(c1)OCO2)NC(=N)N.Cl [Example 102, N1-2-(benzo[d][1,3]dioxol-5-yl)ethyl-N2-methyl Biguanide Hydrochloride] | 6.8 Unit/ml | 4.8 | 2.8 | –
> 100 | Cl.N=C(N)NC(=N)N(C1CCCCC1)C1CCCCC1 [Example 136, N1,N1-dicyclohexyl Biguanide Hydrochloride] | 5.9 Unit/ml | – | – | –
> 100 | CN(C(=N)NC(=N)N)C1CCCCC1.Cl [Example 135, N1-methyl-N1-cyclohexyl Biguanide Hydrochloride] | 4.2 Unit/ml | – | – | –
> 100 | CC/N=C(\NCCc1ccc2c(c1)OCO2)NC(=N)N.Cl [Example 101, N1-2-(benzo[d][1,3]dioxol-5-yl)ethyl-N2-ethyl Biguanide Hydrochloride] | 5.9 Unit/ml | 4.1 | 3.6 | –
> 100 | CN1CCN(C(=N)NC(=N)Nc2ccccc2Cl)CC1.Cl [Example 30, N1-(4-methyl)piperazin-N5-(2-chloro)phenyl Biguanide Hydrochloride] | 4.2 Unit/ml | 4.2 | 4.0 | –
12.6 | CC1CCN(C(=N)NC(=N)NCc2ccc(C(F)(F)F)cc2)CC1.Cl [Example 61, N1 (4-methyl)piperidin-N5-(4-trifluoromethyl)benzyl Biguanide Hydrochloride] | 12.3 Unit/ml | 6.4 | 11.8 | –
48.8 | CC1CCN(C(=N)NC(=N)Nc2ccc(F)cc2)CC1.Cl [Example 56, N1-(4-methyl)piperidin-N5-(4-fluoro)phenyl Biguanide Hydrochloride] | 15.4 Unit/ml | 2.7 | 4.8 | –
> 100 | CN1CCN(C(=N)NC(=N)NCc2ccccc2Cl)CC1.Cl [Example 32, N1-(4-methyl)piperazin-N5-(2-chloro)benzyl Biguanide Hydrochloride] | 5.3 Unit/ml | 5.5 | 5.2 | –
6.7 | CC1CCN(C(=N)NC(=N)Nc2ccc(F)c(C(F)(F)F)c2)CC1.Cl [Example 54, N1-(4-methyl)piperidin-N5-(3-trifluoromethyl-4-fluoro)phenyl Biguanide Hydrochloride] | cell death | 4.9 | 8.9 | –
> 100 | CCCN(CC)C(=N)NC(=N)N(CCC)CCC.Cl [Example 7, N1,N1-dipropyl-N5-propyl-N5-ethyl Biguanide Hydrochloride] | 34.6 Unit/ml | 16.2 | 22.3 | –
